Measurements: patent publication US20240239811A1, “5-(5-(PIPERIDIN-4-YL)THIENO[3,2-C]PYRAZOL-2-YL]INDAZOLE DERIVATIVES AND RELATED COMPOUNDS AS MODULATORS FOR SPLICING NUCLEIC ACIDS AND FOR THE T” (REMIX THERAPEUTICS INC., priority 2020, published 2024)
Structures can show the parent of a compound that is named as a salt.

Legend:
Format in all cases: cell-based
HTT mRNA = assay: Splicing assay (RT-qPCR) monitoring HTT splice variants, canonical (CJ) and alternative (AJ) junction; settings: 50% response, A673 or K562 cell line, 24 hours; for IC50: decrease in CJ mRNA; for AC50: increase in AJ mRNA
Summary of the method: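 A673 or K562 cells were treated 24 h with an 11-point 3-fold dilution series (top 10 uM, ≤0.25% DMSO) at 37 °C. HTT canonical- and alternative-junction mRNAs were quantified in lysates by one-step RT-qPCR. Values were normalized to PPIA (A673) or GAPDH/GUSB (K562).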

HTT CJ mRNA = assay: Gene panel canonical junction qPCR assay, HTT; settings: Table 6, decrease in CJ mRNA, read-out: HTT IC50 (decrease in CJ mRNA levels)
Summary of the method: (§1)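 A673 or K562 cells treated 24 h at 37° C with 11-point 3-fold dilutions, top 10 uM, DMSO ≤0.25%. CJ mRNA quantified by RT-qPCR with exon-junction-spanning probeset, ΔΔCt vs housekeeping gene (GAPDH, GUSB or PPIA) and DMSO control. IC50 from 4-parameter fit of percentage CJ decrease.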

SMN2 CJ mRNA = assay: Gene panel canonical junction qPCR assay, SMN2; settings: Table 6, decrease in CJ mRNA, read-out: SMN2 IC50 (decrease in CJ mRNA levels)
Summary of the method: as §1

Target C CJ mRNA = assay: Gene panel canonical junction qPCR assay, Target C; settings: Table 6, decrease in CJ mRNA, read-out: Target C IC50 (decrease in CJ mRNA levels)
Summary of the method: as §1

Row | Compound | IC50 (HTT mRNA) [µM] | AC50 (HTT mRNA) [µM] | IC50 (HTT CJ mRNA) [µM] | IC50 (SMN2 CJ mRNA) [µM] | IC50 (Target C CJ mRNA) [µM]
1 | Cc1cn2nc(-c3nc4sc(C5CCOCC5)cc4s3)cc(C)c2n1 [Compound 196, 2,8-dimethyl-6-[5-(oxan-4-yl)thieno[2,3-d][1,3]thiazol-2-yl]imidazo[1,2-b]pyridazine] | 1 to 10 | 1 to 10 | 1 to 10 | 1 to 10 | 1 to 10
2 | Cc1cn2nc(-c3nc4sc(C5CCNC5)cc4s3)cc(C)c2n1 (stereo not shown) [Compound 197, 3-(2-{2,8-dimethylimidazo[1,2-b]pyridazin-6-yl}thieno [2,3-d][1,3]thiazol-5-yl)pyrrolidine] | 0.1 to 1 | 0.1 to 1 | 0.1 to 1 | 0.1 to 1 | 1 to 10
3 | Cc1cn2nc(-c3nc4sc(C5=CCNCC5)cc4s3)cc(C)c2n1 [Compound 198, 4-(2-{2,8-dimethylimidazo[1,2-b]pyridazin-6-yl}thieno[2,3-d][1,3]thiazol-5-yl)-1,2,3,6-tetrahydropyridine] | < 0.1 | 0.1 to 1 | < 0.1 | < 0.1 | 1 to 10
4 | Cn1cc2cc(-c3nc4sc(N5CCC56CCNC6)cc4s3)cc(F)c2n1 (stereo not shown) [Compound 200, 5-(5-{1,6-diazaspiro[3.4]octan-1-yl}thieno[2,3-d][1,3]thiazol-2-yl)-7-fluoro-2-methy-lindazole] | > 10 | > 10 | > 10 | 1 to 10 | > 10
5 | Cn1cc2cc(-c3nc4sc(N5CCC56CCNCC6)cc4s3)cc(F)c2n1 [Compound 201, 1-[2-(7-fluoro-2-methylindazol-5-yl)thieno[2,3-d] [1,3]thiazol-5-yl]-1,7-diazaspiro[3.5]nonane] | > 10 | > 10 | > 10 | > 10 | > 10
6 | Cn1cc2cc(-c3nc4sc(N5CCC56CCCNC6)cc4s3)cc(F)c2n1 (stereo not shown) [Compound 202, 1-[2-(7-fluoro-2-methylindazol-5-yl)thieno[2,3-d][1,3]thiazol-5-yl]-1,6-diazaspiro[3.5]nonane] | > 10 | > 10 | > 10 | 1 to 10 | 1 to 10
7 | CN1CCCC2(CCN2c2cc3sc(-c4cc(F)c5nn(C)cc5c4)nc3s2)C1 (stereo not shown) [Compound 203, 1-[2-(7-fluoro-2-methylindazol-5-yl)thieno[2,3-d][1,3]thiazol-5-yl]-6-methyl-1,6-diazaspiro[3.5]nonane] | > 10 | > 10 | > 10 | 1 to 10 | > 10
8 | CN1CCC2(CC1)CCN2c1cc2sc(-c3cc(F)c4nn(C)cc4c3)nc2s1 [Compound 204, 1-[2-(7-fluoro-2-methylindazol-5-yl)thieno[2,3-d][1,3]thiazol-5-yl]-7-methyl-1,7-diazaspiro [3.5]nonane] | 1 to 10 | 1 to 10 | 1 to 10 | 1 to 10 | 1 to 10
9 | Cc1cn2cc(-c3nc4sc(C5CCNCC5)cc4s3)ncc2n1 [Compound 205, 4-(2-{2-methylimidazo[1,2-a]pyrazin-6-yl}thieno[2,3-d][1,3]thiazol-5-yl)piperidine] | 1 to 10 | 1 to 10 | 1 to 10 | 1 to 10 | 1 to 10
10 | Cn1cc2cc(-c3nc4sc(C5CCNCC5)cc4s3)c(O)c(F)c2n1 [Compound 206, 7-fluoro-2-methyl-5-[5-(piperidin-4-yl)thieno[2,3-d][1,3]thiazol-2-yl]indazol-6-ol] | < 0.1 | < 0.1 | < 0.1 | < 0.1 | 0.1 to 1
11 | Cn1cc2cc(-c3cc4cn(C5CCNCC5)nc4s3)ccc2n1 [Compound 207] | 0.1 to 1 | 0.1 to 1 | 0.1 to 1 | < 0.1 | 1 to 10
12 | COc1cc2nn(C)cc2cc1-c1cc2cn(C3CCNCC3)nc2s1 [Compound 208] | 0.1 to 1 | 0.1 to 1 | 0.1 to 1 | < 0.1 | 0.1 to 1
13 | Cn1cc2cc(-c3cc4cn(C5CCNCC5)nc4s3)c(O)cc2n1 [Compound 209, 2-methyl-5-[2-(piperidin-4-yl)thieno[2,3-c]pyrazol-5-yl]indazol-6-ol] | 0.1 to 1 | 1 to 10 | 0.1 to 1 | 0.1 to 1 | 1 to 10
14 | Cn1cc2cc(-c3cc4cn(C5CCNCC5)nc4s3)c(F)cc2n1 [Compound 210] | < 0.1 | < 0.1 | < 0.1 | < 0.1 | 0.1 to 1
15 | Cn1cc2cc(-c3cc4cn(C5CCNCC5)nc4s3)c(C#N)cc2n1 [Compound 211] | 1 to 10 | 1 to 10 | 1 to 10 | 0.1 to 1 | 1 to 10
16 | Cc1cn2nc(-c3cc4cn(C5CCNCC5)nc4s3)c(O)c2c(C)n1 [Compound 213, 4,6-dimethyl-2-[2-(piperidin-4-yl)thieno[2,3-c]pyrazol-5-yl]pyrazolo[1,5-a]pyrazin-3-ol hydrochloride] | 1 to 10 | 1 to 10 | 1 to 10 | 1 to 10 | > 10

Row | Compound | IC50 (HTT mRNA) [µM] | AC50 (HTT mRNA) [µM] | IC50 (HTT CJ mRNA) [µM] | IC50 (SMN2 CJ mRNA) [µM] | IC50 (Target C CJ mRNA) [µM]
17 | Cn1cc2cc(-c3cc4cn(C5CCNCC5)nc4s3)ncc2n1 [Compound 214] | 1 to 10 | 0.1 to 1 | 1 to 10 | 0.1 to 1 | 1 to 10
18 | Cn1cc2cc(-c3cc4cn(C5CCNCC5)nc4s3)c(O)c(F)c2n1 [Compound 215] | 0.1 to 1 | 0.1 to 1 | 0.1 to 1 | < 0.1 | 0.1 to 1
19 | Cc1cn2cc(-c3cc4cn(C5CCNCC5)nc4s3)cc(C)c2n1 [Compound 216] | < 0.1 | < 0.1 | < 0.1 | < 0.1 | 0.1 to 1
20 | COc1c(-c2cc3cn(C4CCNCC4)nc3s2)cc2cn(C)nc2c1F [Compound 218] | < 0.1 | 0.1 to 1 | < 0.1 | < 0.1 | 0.1 to 1
21 | COc1c(-c2cc3cn(C4CCNCC4)nc3s2)nn2cc(C)nc(C)c12 [Compound 219, 4-(5-{3-methoxy-4,6-dimethylpyrazolo[1,5-a]pyrazin-2-yl}thieno[2,3-c]pyrazol-2-yl) piperidine] | > 10 | > 10 | > 10 | 1 to 10 | > 10
22 | Cn1cc2cc(-n3cc4cc(C5CCNCC5)sc4n3)c(O)cc2n1 [Compound 220] | 1 to 10 | 1 to 10 | 1 to 10 | 1 to 10 | 1 to 10
23 | Cc1c(O)c(-c2cc3cn(C4CCNCC4)nc3s2)cc2cn(C)nc12 [Compound 221] | > 10 | > 10 | > 10 | > 10 | > 10
24 | Cc1cn2nc(-c3cc4cn(C5CCNCC5)nc4s3)cc2c(C)n1 [Compound 222] | 1 to 10 | 1 to 10 | 1 to 10 | < 0.1 | 1 to 10
25 | Cc1cn2cc(-c3cc4cn(C5CCNCC5)nc4s3)ncc2n1 [Compound 223] | 1 to 10 | 1 to 10 | 1 to 10 | 0.1 to 1 | 1 to 10
26 | COc1c(-c2cc3cn(C4CCNCC4)nc3s2)cc(F)c2nn(C)cc12 [Compound 224] | > 10 | > 10 | > 10 | > 10 | > 10
27 | Cc1cc(-c2cc3cn(C4CCNCC4)nc3s2)cc2cn(C)nc12 [Compound 225] | < 0.1 | < 0.1 | < 0.1 | < 0.1 | 0.1 to 1
28 | Cc1cn2cc(-c3cc4cn(C5CCNCC5)nc4s3)cc(Cl)c2n1 [Compound 226] | < 0.1 | < 0.1 | < 0.1 | < 0.1 | 0.1 to 1
29 | Cn1cc2c(O)c(-c3nc4sc(C5CCNCC5)cc4s3)ccc2n1 [Compound 231, 2-methyl-5-[5-(piperidin-4-yl)thieno[2,3-d][1,3]thiazol-2-yl]indazol-4-ol] | 1 to 10 | 1 to 10 | 1 to 10 | 0.1 to 1 | > 10
30 | Cn1cc2cc(-c3nc4sc(N5CCC6(CCN6)C5)cc4s3)cc(F)c2n1 (stereo not shown) [Compound 233, 5-(5-{1,6-diazaspiro[3.4]octan-6-yl}thieno[2,3-d][1,3]thiazol-2-yl)-7-fluoro-2-methylindazole] | 1 to 10 | 1 to 10 | 1 to 10 | < 0.1 | 1 to 10
31 | Cc1cn2nc(-c3nc4sc(C5CNC5)cc4s3)cc(C)c2n1 [Compound 235, 3-(2-{2,8-dimethylimidazo[1,2-b]pyridazin-6-yl}thieno[2,3-d] [1,3]thiazol-5-yl) azetidine] | 1 to 10 | 1 to 10 | 1 to 10 | 0.1 to 1 | 1 to 10
32 | Cn1cc2cc(-c3nc4sc(C5(O)CCNCC5)cc4s3)cc(F)c2n1 [Compound 236, 4-[2-(7-fluoro-2-methylindazol-5-yl)thieno[2,3-d] [1,3]thiazol-5-yl] piperidin-4-ol] | 0.1 to 1 | 1 to 10 | 0.1 to 1 | 0.1 to 1 | 1 to 10
